Test results taken from patent US20090304827A1, “Combinations of Ingredients Having Synergistic Anti-Inflammatory Effects” (priority 2008, published 2009).

Key:
[1] = system: LPS-induced PGE2 production; details: cited from earlier work
[2] = system: LPS-induced NO production; details: cited from earlier work
iNOS = details: cited from earlier work
[3] = system: LPS-induced nitrite (NO) generation on murine macrophage RAW264.7 cells; experiment: Nitrite assay: LPS-induced nitrite (NO) generation, Griess reaction; format: cell-based; details: either singly or in combination
Description: The term “synergy” refers to the phenomenon in which the combination of two or more discrete agents acting together can cause a greater response than simply the sum of the individual effects of each agent if they were used separately. It is not uncommon to find the presence of two or more chemical constituents or herbs on an organism to be greater than the effect of each chemical constituent or herb individually, or the sum of the individual effects. […]
The nitrite concentration in the medium was measured as an indicator of NO production, a common phenomenon of the inflammation process, according to the Griess reaction. […] One hundred microliters of supernatant was mixed with the same volume of Griess reagent (1% sulfanilamide in 5% phosphoric acid and 0.1% naphthylethylenediamine dihydrocholide in water); absorbance of the mixture at 550 nm was determined with an ELISA plate reader (Dynatech MR-7000; Dynatech Laboratories Inc.).
Various combinations of herbal extracts were investigated for anti-inflammatory effect using nitrite assay. For the study, RAW 264.7 cells were treated with LPS (10 μg/mL) to induce nitrite production, various concentrations and combinations thereof were added, and the nitrite concentration in the medium was measured as an indicator of the inhibition of NO production, a common phenomenon of the inflammation process.

[4] = system: RAW 264.7 cells activated with bacterial lipopolysaccharide; details: LPS 50 ng ml^−1; cited from earlier work

Compound | COX-2 gene expression / activation [1] | LPS-induced PGE2 production [1] | LPS-induced NO production [2] | iNOS gene expression / activation [2] | iNOS enzyme activity (iNOS) | anti-inflammatory property (inhibition of NO production) [3] | NO generation in activated macrophages (nitrite released into the culture medium) [4] | amount of cytosolic iNOS protein and steady state mRNA levels [4]
O=c1cc(-c2ccccc2)oc2cc(O)c(O)c(O)c12 [baicalein] | not | not | significantly inhibited | significantly inhibited | did not inhibit |  |  | 
O=C1O[C@H]([C@@H](O)CO)C(O)=C1O [Vitamin C, L-ascorbate] |  |  |  |  |  | did not show any noticeable anti-inflammatory property |  | 
O=C(O)[C@H]1O[C@@H](Oc2cc3oc(-c4ccccc4)cc(=O)c3c(O)c2O)[C@H](O)[C@@H](O)[C@@H]1O [Baicalin] | not | not | significantly inhibited | significantly inhibited | did not inhibit |  |  | 
Oc1ccc(C=Cc2cc(O)cc(O)c2)cc1 [Resveratrol] |  |  |  |  |  |  | strongly to inhibit | strongly reduced
Tocopherol [vitamin E] |  |  |  |  |  | did not show any noticeable anti-inflammatory property |  | 
COc1c(O)cc(O)c2c(=O)cc(-c3ccccc3)oc12 [wogonin] | inhibited | inhibited | significantly inhibited | significantly inhibited | did not inhibit |  |  | 
COc1c(O)cc2oc(-c3ccccc3)cc(=O)c2c1O [Oroxylin A] | blocking | potent inhibitor | potent inhibitor | blocking |  |  |  | 
